Results: publication PMC9172056 (Journal of medicinal chemistry, 2022)

Experiments:
in vitro = details: cat
SARS-CoV-2 3CL^pro = SARS-CoV-2 3CL^pro (Severe acute respiratory syndrome coronavirus 2, UniProt P0DTD1); assay: biochemical; type: biochemical
MERS-CoV 3CL^pro = MERS-CoV 3CL^pro (Middle East respiratory syndrome-related coronavirus, UniProt K9N7C7); assay: biochemical
Sequence of MERS-CoV 3CL^pro (K9N7C7 3248-3553 limits assumed): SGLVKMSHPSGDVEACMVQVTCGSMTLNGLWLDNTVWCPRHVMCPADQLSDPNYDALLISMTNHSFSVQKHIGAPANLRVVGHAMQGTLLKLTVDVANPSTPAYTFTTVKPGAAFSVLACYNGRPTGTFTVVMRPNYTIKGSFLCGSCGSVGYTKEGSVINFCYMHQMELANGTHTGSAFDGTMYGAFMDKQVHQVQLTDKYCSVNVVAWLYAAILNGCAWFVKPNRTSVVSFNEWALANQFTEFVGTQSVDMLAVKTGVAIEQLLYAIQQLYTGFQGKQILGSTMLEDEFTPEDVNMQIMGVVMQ

Compound	CC50 (in vitro)	IC50 (SARS-CoV-2 3CL^pro)	IC50 (MERS-CoV 3CL^pro)	fold lower IC50 than compound 1b (SARS-CoV-2 3CL^pro)
CC(C)C[C@H](NC(=O)OC1CC2(C1)CN(C(=O)OC(C)(C)C)C2)C(=O)N[C@H](C=O)C[C@H]1CCNC1=O [Compound 1b, tert-Butyl 6-((((S)-4-methyl-1-oxo-1-(((S)-1-oxo-3-((R)-2-oxopyrrolidin-3-yl)propan-2-yl)amino)pentan-2-yl)carbamoyl)oxy)-2-azaspiro[3.3]heptane-2-carboxylate]	> 100000 nM			
CC(C)C[C@H](NC(=O)OC1CC2(C1)CN(C(=O)OC(C)(C)C)C2)C(=O)N[C@@H](C[C@H]1CCNC1=O)C(O)S(=O)(=O)O (stereo partly drawn) [Compound 1c, Sodium (2S)-2-((S)-2-((((2-(tert-butoxycarbonyl)-2-azaspiro[3.3]heptan-6-yl)oxy)carbonyl)amino)-4-methylpentanamido)-1-hydroxy-3-((R)-2-oxopyrrolidin-3-yl)propane-1-sulfonate]	> 100000 nM	850 ± 70 nM	280 ± 110 nM	
CC(C)C[C@H](NC(=O)OC1CC2(C1)CN(C(=O)C(C)C)C2)C(=O)N[C@H](C=O)C[C@H]1CCNC1=O [Compound 2b, 2-Isobutyryl-2-azaspiro[3.3]heptan-6-yl ((S)-4-methyl-1-oxo-1-(((S)-1-oxo-3-((R)-2-oxopyrrolidin-3-yl)propan-2-yl)amino)pentan-2-yl)carbamate]	> 100000 nM			
CC(C)C[C@H](NC(=O)OC1CC2(C1)CN(C(=O)C(C)C)C2)C(=O)N[C@@H](C[C@H]1CCNC1=O)C(O)S(=O)(=O)O (stereo partly drawn) [Compound 2c, Sodium (2S)-1-hydroxy-2-((S)-2-((((2-isobutyryl-2-azaspiro[3.3]heptan-6-yl)oxy)carbonyl)amino)-4-methylpentanamido)-3-((R)-2-oxopyrrolidin-3-yl)propane-1-sulfonate]	> 100000 nM	650 ± 70 nM	550 ± 70 nM	
CC(C)C[C@H](NC(=O)OC1CC2(C1)CN(C(=O)Cc1ccccc1)C2)C(=O)N[C@H](C=O)C[C@H]1CCNC1=O [Compound 3b, 2-(2-Phenylacetyl)-2-azaspiro[3.3]heptan-6-yl ((S)-4-methyl-1-oxo-1-(((S)-1-oxo-3-((R)-2-oxopyrrolidin-3-yl)propan-2-yl)amino)pentan-2-yl)carbamate]	> 100000 nM			~13 fold
CC(C)C[C@H](NC(=O)OC1CC2(C1)CN(C(=O)Cc1ccccc1)C2)C(=O)N[C@@H](C[C@H]1CCNC1=O)C(O)S(=O)(=O)O (stereo partly drawn) [Compound 3c, Sodium (2S)-1-hydroxy-2-((S)-4-methyl-2-((((2-(2-phenylacetyl)-2-azaspiro[3.3]heptan-6-yl)oxy)carbonyl)amino)pentanamido)-3-((R)-2-oxopyrrolidin-3-yl)propane-1-sulfonate]	> 100000 nM	260 ± 50 nM	130 ± 30 nM	
CC(C)C[C@H](NC(=O)OC1CC2(C1)CN(S(C)(=O)=O)C2)C(=O)N[C@H](C=O)C[C@H]1CCNC1=O [Compound 4b, 2-(Methylsulfonyl)-2-azaspiro[3.3]heptan-6-yl ((S)-4-methyl-1-oxo-1-(((S)-1-oxo-3-((R)-2-oxopyrrolidin-3-yl)propan-2-yl)amino)pentan-2-yl)carbamate]	> 100000 nM			
CC(C)C[C@H](NC(=O)OC1CC2(C1)CN(S(C)(=O)=O)C2)C(=O)N[C@@H](C[C@H]1CCNC1=O)C(O)S(=O)(=O)O (stereo partly drawn) [Compound 4c, Sodium (2S)-1-hydroxy-2-((S)-4-methyl-2-((((2-(methylsulfonyl)-2-azaspiro[3.3]heptan-6-yl)oxy)carbonyl)amino)pentanamido)-3-((R)-2-oxopyrrolidin-3-yl)propane-1-sulfonate]	> 100000 nM	760 ± 80 nM	160 ± 10 nM	
CC(C)C[C@H](NC(=O)OC1CC2(CCN(C(=O)OC(C)(C)C)C2)C1)C(=O)N[C@H](C=O)C[C@H]1CCNC1=O (stereo partly drawn) [Compound 5b, tert-Butyl 2-((((S)-4-methyl-1-oxo-1-(((S)-1-oxo-3-((R)-2-oxopyrrolidin-3-yl)propan-2-yl)amino)pentan-2-yl)carbamoyl)oxy)-6-azaspiro[3.4]octane-6-carboxylate]	> 100000 nM		700 ± 140 nM	
CC(C)C[C@H](NC(=O)OC1CC2(CCN(C(=O)OC(C)(C)C)C2)C1)C(=O)N[C@@H](C[C@H]1CCNC1=O)C(O)S(=O)(=O)O (stereo partly drawn) [Compound 5c, Sodium (2S)-2-((S)-2-((((6-(tert-butoxycarbonyl)-6-azaspiro[3.4]octan-2-yl)oxy)carbonyl)amino)-4-methylpentanamido)-1-hydroxy-3-((R)-2-oxopyrrolidin-3-yl)propane-1-sulfonate]	> 100000 nM	750 ± 70 nM	750 ± 70 nM	
CC(C)C[C@H](NC(=O)OC1CCC2(C1)CN(C(=O)OC(C)(C)C)C2)C(=O)N[C@H](C=O)C[C@H]1CCNC1=O (stereo partly drawn) [Compound 6b, tert-Butyl 6-((((S)-4-methyl-1-oxo-1-(((S)-1-oxo-3-((R)-2-oxopyrrolidin-3-yl)propan-2-yl)amino)pentan-2-yl)carbamoyl)oxy)-2-azaspiro[3.4]octane-2-carboxylate]	> 100000 nM			
CC(C)C[C@H](NC(=O)OC1CCC2(C1)CN(C(=O)OC(C)(C)C)C2)C(=O)N[C@@H](C[C@H]1CCNC1=O)C(O)S(=O)(=O)O (stereo partly drawn) [Compound 6c, Sodium (2S)-2-((2S)-2-((((2-(tert-butoxycarbonyl)-2-azaspiro[3.4]octan-6-yl)oxy)carbonyl)amino)-4-methylpentanamido)-1-hydroxy-3-((R)-2-oxopyrrolidin-3-yl)propane-1-sulfonate]	> 100000 nM	1200 ± 140 nM	1300 ± 140 nM	
CC(C)C[C@H](NC(=O)OC1CC2(CCN(C(=O)C(C)C)CC2)C1)C(=O)N[C@H](C=O)C[C@H]1CCNC1=O [Compound 8b, 7-Isobutyryl-7-azaspiro[3.5]nonan-2-yl ((S)-4-methyl-1-oxo-1-(((S)-1-oxo-3-((R)-2-oxopyrrolidin-3-yl)propan-2-yl)amino)pentan-2-yl)carbamate]	> 100000 nM			
CC(C)C[C@H](NC(=O)OC1CC2(CCN(C(=O)C(C)C)CC2)C1)C(=O)N[C@@H](C[C@H]1CCNC1=O)C(O)S(=O)(=O)O (stereo partly drawn) [Compound 8c, Sodium (2S)-1-hydroxy-2-((S)-2-((((7-isobutyryl-7-azaspiro[3.5]nonan-2-yl)oxy)carbonyl)amino)-4-methylpentanamido)-3-((R)-2-oxopyrrolidin-3-yl)propane-1-sulfonate]	> 100000 nM	410 ± 10 nM	520 ± 120 nM	
CC(C)C[C@H](NC(=O)OC1CC2(CCN(C(=O)Cc3ccccc3)CC2)C1)C(=O)N[C@H](C=O)C[C@H]1CCNC1=O [Compound 9b, 7-(2-Phenylacetyl)-7-azaspiro[3.5]nonan-2-yl ((S)-4-methyl-1-oxo-1-(((S)-1-oxo-3-((R)-2-oxopyrrolidin-3-yl)propan-2-yl)amino)pentan-2-yl)carbamate]	> 100000 nM			
CC(C)C[C@H](NC(=O)OC1CC2(CCN(S(C)(=O)=O)CC2)C1)C(=O)N[C@H](C=O)C[C@H]1CCNC1=O [Compound 10b, 7-(Methylsulfonyl)-7-azaspiro[3.5]nonan-2-yl ((S)-4-methyl-1-oxo-1-(((S)-1-oxo-3-((R)-2-oxopyrrolidin-3-yl)propan-2-yl)amino)pentan-2-yl)carbamate]	> 100000 nM			
CC(C)C[C@H](NC(=O)OC1CC2(CCN(C#N)CC2)C1)C(=O)N[C@H](C=O)C[C@H]1CCNC1=O [Compound 11b, 7-Cyano-7-azaspiro[3.5]nonan-2-yl ((S)-4-methyl-1-oxo-1-(((S)-1-oxo-3-((R)-2-oxopyrrolidin-3-yl)propan-2-yl)amino)pentan-2-yl)carbamate]	> 100000 nM			
CC(C)C[C@H](NC(=O)OC1CN(C(=O)OC(C)(C)C)C1)C(=O)N[C@H](C=O)C[C@H]1CCNC1=O [Compound 12b, tert-Butyl 3-((((S)-4-methyl-1-oxo-1-(((S)-1-oxo-3-((R)-2-oxopyrrolidin-3-yl)propan-2-yl)amino)pentan-2-yl)carbamoyl)oxy)azetidine-1-carboxylate]	> 100000 nM			
CC(C)C[C@H](NC(=O)OC1(C)CN(C(=O)OC(C)(C)C)C1)C(=O)N[C@H](C=O)C[C@H]1CCNC1=O [Compound 13b, tert-Butyl 3-methyl-3-((((S)-4-methyl-1-oxo-1-(((S)-1-oxo-3-((R)-2-oxopyrrolidin-3-yl)propan-2-yl)amino)pentan-2-yl)carbamoyl)oxy)azetidine-1-carboxylate]	> 100000 nM			
CC(C)C[C@H](NC(=O)OCC1CN(C(=O)Cc2ccccc2)C1)C(=O)N[C@H](C=O)C[C@H]1CCNC1=O [Compound 15b, (1-(2-Phenylacetyl)azetidin-3-yl)methyl ((S)-4-methyl-1-oxo-1-(((S)-1-oxo-3-((R)-2-oxopyrrolidin-3-yl)propan-2-yl)amino)pentan-2-yl)carbamate]	> 100000 nM			
CC(C)C[C@H](NC(=O)OCC1CN(C(=O)C2CC3CCC2C3)C1)C(=O)N[C@H](C=O)C[C@H]1CCNC1=O (stereo partly drawn) [Compound 16b, (1-(Bicyclo[2.2.1]heptane-2-carbonyl)azetidin-3-yl)methyl ((S)-4-methyl-1-oxo-1-(((S)-1-oxo-3-((R)-2-oxopyrrolidin-3-yl)propan-2-yl)amino)pentan-2-yl)carbamate]	> 100000 nM			
CC(C)C[C@H](NC(=O)OCC1CN(S(C)(=O)=O)C1)C(=O)N[C@H](C=O)C[C@H]1CCNC1=O [Compound 17b, (1-(Methylsulfonyl)azetidin-3-yl)methyl ((S)-4-methyl-1-oxo-1-(((S)-1-oxo-3-((R)-2-oxopyrrolidin-3-yl)propan-2-yl)amino)pentan-2-yl)carbamate]	> 100000 nM			
[2H]C([2H])(OC(=O)N[C@@H](CC(C)C)C(=O)N[C@H](C=O)C[C@H]1CCNC1=O)C1CN(C(=O)OC(C)(C)C)C1 [Compound 18b, tert-Butyl 3-(((((S)-4-methyl-1-oxo-1-(((S)-1-oxo-3-((R)-2-oxopyrrolidin-3-yl)propan-2-yl)amino)pentan-2-yl)carbamoyl)oxy)methyl-d2)azetidine-1-carboxylate]	> 100000 nM			
